Data as given in US5977063A, “Alkylated hexapeptides” (Eli Lilly and Company, priority 1998, dated 1999).

Key:
Format in all cases: cell-based
[1] = test system: Staphylococcus aureus 447; experiment: MIC, standard broth micro-dilution assay, SA 447; design: unit not given here
Method: (§1) The antibacterial efficacy of the present compounds is illustrated by Table II. The minimal inhibitory concentrations (MICs) were determined using a standard broth micro-dilution assay.

[2] = test system: Staphylococcus haemolyticus 415; experiment: MIC, standard broth micro-dilution assay, SH 415; design: unit not given here
Method: as §1

[3] = test system: Streptococcus pyogenes C203; experiment: MIC, standard broth micro-dilution assay, SPY C203; design: unit not given here
Method: as §1

[4] = test system: Staphylococcus haemolyticus 105; experiment: MIC, standard broth micro-dilution assay, SH 105; design: unit not given here
Method: as §1

[5] = test system: Enterococcus faecium and faecalis (SENSITIVE); experiment: MIC, standard broth micro-dilution assay, SENSITIVE enterococci; design: unit not given here; details: geometric mean of 4-6 isolates
Method: as §1

[6] = test system: Streptococcus pneumoniae P1; experiment: MIC, standard broth micro-dilution assay, SPN P1; design: unit not given here
Method: as §1

[7] = test system: Enterococcus faecium and faecalis (RESISTANT); details: geometric mean of 4-6 isolates
Method: as §1

[8] = test system: Staphylococcus epidermidis 270; experiment: MIC, standard broth micro-dilution assay, SE 270; design: unit not given here
Method: as §1

[9] = test system: Staphylococcus aureus 446; experiment: MIC, standard broth micro-dilution assay, SA 446; design: unit not given here
Method: as §1

[10] = test system: Staphylococcus aureus 489; experiment: MIC, standard broth micro-dilution assay, SA 489; design: unit not given here
Method: as §1

C[C@@H]1O[C@@H](O[C@H]2[C@H](Oc3c4cc5cc3Oc3ccc(cc3Cl)[C@@H](O[C@H]3C[C@](C)(N)[C@@H](O)[C@H](C)O3)[C@@H]3NC(=O)[C@H](NC(=O)[C@@H]5NC(=O)[C@H](CC(N)=O)NC(=O)[C@H](NCc5ccccc5)[C@H](O)c5ccc(c(Cl)c5)O4)c4ccc(O)c(c4)-c4c(O)cc(O)cc4[C@@H](C(=O)O)NC3=O)O[C@H](CO)[C@@H](O)[C@@H]2O)C[C@](C)(N)[C@H]1O [Example 12, N^1 -BENZYLDESLEUCYL-A82846B]
Minimal Inhibitory Concentration (MIC) SA 447 [1]: > 64 | Minimal Inhibitory Concentration (MIC) SH 415 [2]: > 64 | Minimal Inhibitory Concentration (MIC) SPY C203 [3]: 2 | Minimal Inhibitory Concentration (MIC) SH 105 [4]: > 64 | Minimal Inhibitory Concentration (MIC) SENSITIVE [5]: 128 | Minimal Inhibitory Concentration (MIC) SPN P1 [6]: 2 | Minimal Inhibitory Concentration (MIC) RESISTANT [7]: > 128 | Minimal Inhibitory Concentration (MIC) SE 270 [8]: > 64 | Minimal Inhibitory Concentration (MIC) SA 446 [9]: > 64 | Minimal Inhibitory Concentration (MIC) SA 489 [10]: 64

C[C@@H]1O[C@@H](O[C@@H]2c3ccc(c(Cl)c3)Oc3cc4cc(c3O[C@@H]3O[C@H](CO)[C@@H](O)[C@H](O)[C@H]3O[C@H]3C[C@](C)(NCc5ccc(-c6ccccc6)cc5)[C@@H](O)[C@H](C)O3)Oc3ccc(cc3Cl)[C@@H](O)[C@@H](NCCCCCCCCCCCCc3ccccc3)C(=O)N[C@@H](CC(N)=O)C(=O)N[C@H]4C(=O)N[C@H]3C(=O)N[C@@H]2C(=O)N[C@H](C(=O)O)c2cc(O)cc(O)c2-c2cc3ccc2O)C[C@](C)(N)[C@H]1O [Example 2, N^1 -(12-PHENYL-n-DODECYL)-N^DISACC -(p-PHENYLBENZYL)-DESLEUCYL-A82846B]
Minimal Inhibitory Concentration (MIC) SA 447 [1]: > 64 | Minimal Inhibitory Concentration (MIC) SH 415 [2]: > 64 | Minimal Inhibitory Concentration (MIC) SPY C203 [3]: 4 | Minimal Inhibitory Concentration (MIC) SH 105 [4]: > 64 | Minimal Inhibitory Concentration (MIC) SENSITIVE [5]: 24 | Minimal Inhibitory Concentration (MIC) SPN P1 [6]: ≤ .06 | Minimal Inhibitory Concentration (MIC) RESISTANT [7]: 45 | Minimal Inhibitory Concentration (MIC) SE 270 [8]: 32 | Minimal Inhibitory Concentration (MIC) SA 446 [9]: 32 | Minimal Inhibitory Concentration (MIC) SA 489 [10]: 64

CCCCCCCCOc1ccc(CN[C@H]2C(=O)N[C@@H](CC(N)=O)C(=O)N[C@H]3C(=O)N[C@H]4C(=O)N[C@H](C(=O)N[C@H](C(=O)O)c5cc(O)cc(O)c5-c5cc4ccc5O)[C@H](O[C@H]4C[C@](C)(N)[C@@H](O)[C@H](C)O4)c4ccc(c(Cl)c4)Oc4cc3cc(c4O[C@@H]3O[C@H](CO)[C@@H](O)[C@H](O)[C@H]3O[C@H]3C[C@](C)(N)[C@@H](O)[C@H](C)O3)Oc3ccc(cc3Cl)[C@H]2O)cc1 [Example 23, N^1 -(p-(n-OCTYLOXY)-BENZYL)DESLEUCYL-A82846B]
Minimal Inhibitory Concentration (MIC) SA 447 [1]: 4 | Minimal Inhibitory Concentration (MIC) SH 415 [2]: 8 | Minimal Inhibitory Concentration (MIC) SPY C203 [3]: 0.25 | Minimal Inhibitory Concentration (MIC) SH 105 [4]: 4 | Minimal Inhibitory Concentration (MIC) SENSITIVE [5]: 9.2 | Minimal Inhibitory Concentration (MIC) SPN P1 [6]: 1 | Minimal Inhibitory Concentration (MIC) RESISTANT [7]: 11 | Minimal Inhibitory Concentration (MIC) SE 270 [8]: 4 | Minimal Inhibitory Concentration (MIC) SA 446 [9]: 8 | Minimal Inhibitory Concentration (MIC) SA 489 [10]: 4

C[C@@H]1O[C@@H](O[C@@H]2c3ccc(c(Cl)c3)Oc3cc4cc(c3O[C@@H]3O[C@H](CO)[C@@H](O)[C@H](O)[C@H]3O[C@H]3C[C@](C)(NCCCCCCc5ccccc5)[C@@H](O)[C@H](C)O3)Oc3ccc(cc3Cl)[C@@H](O)[C@@H](NCCCCCCc3ccccc3)C(=O)N[C@@H](CC(N)=O)C(=O)N[C@H]4C(=O)N[C@H]3C(=O)N[C@@H]2C(=O)N[C@H](C(=O)O)c2cc(O)cc(O)c2-c2cc3ccc2O)C[C@](C)(N)[C@H]1O [Example 15, N^1,N^DISACC -BIS(6-PHENYL-n-HEXYL) -DESLEUCYL-A82846B]
Minimal Inhibitory Concentration (MIC) SA 447 [1]: 2 | Minimal Inhibitory Concentration (MIC) SH 415 [2]: 2 | Minimal Inhibitory Concentration (MIC) SPY C203 [3]: 0.125 | Minimal Inhibitory Concentration (MIC) SH 105 [4]: 1 | Minimal Inhibitory Concentration (MIC) SENSITIVE [5]: 6 | Minimal Inhibitory Concentration (MIC) SPN P1 [6]: 0.5 | Minimal Inhibitory Concentration (MIC) RESISTANT [7]: 8 | Minimal Inhibitory Concentration (MIC) SE 270 [8]: 2 | Minimal Inhibitory Concentration (MIC) SA 446 [9]: 4 | Minimal Inhibitory Concentration (MIC) SA 489 [10]: 2

CC1OC(OC2c3ccc(c(Cl)c3)Oc3cc4cc(c3OC3OC(CO)C(O)C(O)C3OC3CC(C)(N)C(O)C(C)O3)Oc3ccc(cc3Cl)C(O)C(NCCCCCCCCCCCCc3ccccc3)C(=O)NC(CC(N)=O)C(=O)NC4C(=O)NC3C(=O)NC2C(=O)NC(C(=O)O)c2cc(O)cc(O)c2-c2cc3ccc2O)CC(C)(N)C1O (stereo not shown) [Example 1, N^1 -(12-PHENYL-n-DODECYL)DESLEUCYL-A82846B]
Minimal Inhibitory Concentration (MIC) SA 447 [1]: 2 | Minimal Inhibitory Concentration (MIC) SH 415 [2]: 8 | Minimal Inhibitory Concentration (MIC) SPY C203 [3]: 0.125 | Minimal Inhibitory Concentration (MIC) SH 105 [4]: 4 | Minimal Inhibitory Concentration (MIC) SENSITIVE [5]: 9.2 | Minimal Inhibitory Concentration (MIC) RESISTANT [7]: 13 | Minimal Inhibitory Concentration (MIC) SE 270 [8]: 4 | Minimal Inhibitory Concentration (MIC) SA 446 [9]: 8 | Minimal Inhibitory Concentration (MIC) SA 489 [10]: 2
